A word on the IC50: it is the concentration at which inhibition is half-maximal.

This test concerns the target T1, Human CXCR3 (N-delta 4) (Homo sapiens, UniProt P49682).
T1 construct: CD8 leader (N); Flag tag; expressed in transfected cells; membranes prepared
T1 sequence (P49682 5-368 limits assumed): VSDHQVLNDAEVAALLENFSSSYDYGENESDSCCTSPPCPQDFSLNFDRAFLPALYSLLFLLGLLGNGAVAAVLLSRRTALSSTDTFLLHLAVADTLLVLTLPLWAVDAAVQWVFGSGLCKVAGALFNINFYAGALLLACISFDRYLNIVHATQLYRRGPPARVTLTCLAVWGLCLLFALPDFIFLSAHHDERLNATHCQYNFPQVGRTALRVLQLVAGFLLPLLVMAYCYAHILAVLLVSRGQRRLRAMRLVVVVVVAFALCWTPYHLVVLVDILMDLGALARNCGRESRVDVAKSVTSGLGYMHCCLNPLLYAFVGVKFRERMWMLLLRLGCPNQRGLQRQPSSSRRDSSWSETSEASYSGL
Description: Human CXCR3 (N-delta 4) scintillation proximity assay (SPA), [125I] IP-10 binding to Ba/F3-hCXCR3 membranes. Conditions: IC50 rating; 25 pM [125I] IP-10, membranes of Ba/F3 cells expressing human CXCR3 (N-delta 4). The source says:
The inventive compounds can readily be evaluated to determine activity at The CXCR3 receptors by known methods, such as, for example, Development of Human CXCR3 (N-delta 4) Binding Assay.
Cloning and Expression of Human CXCR3 (N-delta 4):
The DNA encoding human CXCR3 was cloned by PCR using human genomic DNA (Promega, Madison, Wis.) as a template. The PCR primers were designed based on the published sequence of human orphan receptor GPR9 (1) with incorporated restriction sites, a Kozak consensus sequence, CD8 leader and Flag tag. The PCR product was subcloned into the mammalian expression vector pME18Sneo, a derivative of the SR-alpha expression vector (designated as pME18Sneo-hCXCR3 (N-delta 4).
IL-3-dependent mouse pro-B cells Ba/F3 were transfected by electroporation in 0.4 ml Dulbecco's PBS containing 4×10^6 cells with 20 μg of pME18Sneo-hCXCR3 (N-delta 4) plasmid DNA. Cells were pulsed at 400 Volts, 100 OHMs, 960 μFd. The transfected cells were under selection with 1 mg/ml G418 (Life Technologies, Gaithersburg, Md.). G418-resistant Ba/F3 clones were screened for CXCR3 expression by specific binding of [^125I] IP-10 (NEN Life Science Products, Boston, Mass.).
Preparation of Ba/F3-hCXCR3 (N-delta 4) Membranes
Ba/F3 cells expressing human CXCR3 (N-delta 4) were pelleted and resuspended in the lysis buffer containing 10 mM HEPES, pH 7.5 and Complete® protease inhibitors (1 tablet per 100 ml) (Boehringer Mannheim, Indianapolis, Ind.) at a cell density of 20×10^6 cells per ml. After 5 minutes incubation on ice, cells were transferred to 4639 cell disruption bomb (Parr Instrument, Moline, Ill.) and applied with 1,500 psi of nitrogen for 30 minutes on ice. Large cellular debris was removed by centrifugation at 1,000×g. Cell membrane in the supernatant was sedimented at 100,000×g. The membrane was resuspended in the lysis buffer supplemented with 10% sucrose and stored at −80° C. Total protein concentration of the membrane was determined by BCA method from Pierce (Rockford, Ill.).
Human CXCR3 (N-delta 4) Scintillation Proximity Assay (SPA)
For each assay point, 2 μg of membrane was preincubated for 1 hr with 300 μg wheat germ agglutinin (WGA) coated SPA beads (Amersham, Arlington Heights, Ill.) in the binding buffer (50 mM HEPES, 1 mM CaCl2, 5 mM MgCl2, 125 mM NaCl, 0.002% NaN3, 1.0% BSA) at room temperature. The beads were spun down, washed once, resuspended in the binding buffer and transferred to a 96-well Isoplate (Wallac, Gaithersburg, Md.). 25 pM of [^125I] IP-10 with tested compounds in a series of titration were added to start the reaction. After 3 hr reaction at room temperature, the amount of [^125I] IP-10 bound to the SPA beads was determined with a Wallac 1450 Microbeta counter.
The Ki values for the various example compounds of the present invention are given in the afore-mentioned Table 1. From these values, it would be apparent to the skilled artisan that the compounds of the invention have excellent utility CXCR3 antagonists.

Where only a bound is given, the exact number is not on record here.

Consider `CC[C@H]1CN(c2nc(N)c(C(=O)NN)nc2Cl)CCN1C1CCN(C(=O)c2cnc(Cl)c(Cl)c2)CC1` [compound 71], for which the IC50 was 25 to 100 nM. As for `CC[C@H]1CN(c2nc(N)c(C(=O)NCCO)nc2Cl)CCN1C1CCN(Cc2ccc(C#N)nc2)CC1` [compound 72], the figure is more than 100 nM; as for `CC[C@H]1CN(c2nc(N)c(C(=O)NN)nc2Cl)CCN1C1CCN(C(=O)c2cc(F)c(N)nc2Cl)CC1` [compound 73], more than 100 nM.

`CC[C@H]1CN(c2nc(N)c(C(=O)NC3CC3)nc2Cl)CCN1C1CCN(Cc2cc(C)nn2C)CC1` [compound 74] returned a 50% inhibitory concentration (IC50) of more than 100 nM. As for `CC[C@H]1CN(c2nc(N)c(C(N)=O)nc2Cl)CCN1C1CCN(Cc2ccc(Cl)n3ccnc23)CC1` [compound 75], the figure is more than 100 nM; as for `CCOC(=O)C1(NC(=O)c2nc(Cl)c(N3CCN(C4CCN(C(=O)c5ccc(Cl)nc5N)CC4)[C@@H](CC)C3)nc2N)CC1` [compound 76], more than 100 nM; as for `CC[C@H]1CN(c2nc(NC(=O)N(C)C)c(C(=O)NC)nc2Cl)CCN1C1CCN(C(=O)c2ccc(Cl)nc2N)CC1` [compound 77], more than 100 nM. As for `CC[C@H]1CN(c2nc(N)c(C(=O)NC3CC3)nc2Cl)CCN1C1CCN(C(=O)c2cc(F)c(N)nc2Cl)CC1` [compound 78], the figure is more than 100 nM.

`CC[C@H]1CN(c2nc(N)c(C(=O)NCCO)nc2Cl)CCN1C1CCN(C(=O)c2cnc(Cl)nc2C(F)(F)F)CC1` [compound 79] gave a 50% inhibitory concentration (IC50) of more than 100 nM. Compound `CCOC(=O)NCc1nc(Cl)c(N2CCN(C3CCN(C(=O)c4ccc(Cl)nc4N)CC3)[C@@H](CC)C2)nc1N` [compound 80] yielded an IC50 of more than 100 nM. For the compound `CC[C@H]1CN(c2nc(N)c(C(=O)NC3CC3)nc2Cl)CCN1C1CCN(Cc2c(C)nn(C)c2C)CC1` [compound 81], the IC50 is more than 100 nM. Regarding `CC[C@H]1CN(c2nc(N)c(C(=O)NCC(C)(C)O)nc2Cl)CCN1C1CCN(C(=O)c2ccc(Cl)nc2N)CC1` [compound 82], the IC50 was more than 100 nM. The compound `CC[C@H]1CN(c2nc(N)c(C(=O)Nc3nccc(=O)[nH]3)nc2Cl)CCN1C1CCN(C(=O)c2ccc(Cl)nc2N)CC1` [compound 83] displayed a half-maximal inhibitory concentration (IC50) of more than 100 nM. `CC[C@H]1CN(c2nc(NCC3CC3)c(C(N)=O)nc2Cl)CCN1C1CCN(C(=O)c2ccc(Cl)nc2N)CC1` [compound 84] had an IC50 of more than 100 nM. The figure for `CC[C@H]1CN(c2nc(N)c(C(=O)NCCO)nc2Cl)CCN1C1CCN(Cc2ccc(Cl)nn2)CC1` [compound 85] is more than 100 nM; for `CC[C@H]1CN(c2nc(N)c(C(=O)NNC(=O)C3CC3)nc2Cl)CCN1C1CCN(C(=O)c2ccc(Cl)nc2N)CC1` [compound 86] it is more than 100 nM; for `CC[C@H]1CN(c2nc(N)c(C(=O)N3CC(O)C3)nc2Cl)CCN1C1CCN(C(=O)c2ccc(Cl)nc2N)CC1` [compound 87] it is more than 100 nM. As for `CC[C@H]1CN(c2nc(N)c(C(N)=O)nc2Cl)CCN1C1CCN(C(=O)c2ccc(-n3cccc3)nc2)CC1` [compound 88], the figure is more than 100 nM; as for `CC[C@H]1CN(c2nc(N)c(C(=O)Nc3ncccc3O)nc2Cl)CCN1C1CCN(C(=O)c2ccc(Cl)nc2N)CC1` [compound 89], more than 100 nM.

Compound `CC[C@H]1CN(c2nc(N)c(C(=O)N/C(N)=N/C#N)nc2Cl)CCN1C1CCN(C(=O)c2ccc(Cl)nc2N)CC1` [compound 90] showed an IC50 of more than 100 nM. The figure for `CC[C@H]1CN(c2nc(N)c(C(=O)NCCO)nc2Cl)CCN1C1CCN(C(=O)c2ccc(Cl)nc2NC)CC1` [compound 91] is more than 100 nM; for `CC[C@H]1CN(c2nc(N)c(C(=O)NCCO)nc2Cl)CCN1C1CCN(Cc2ccc(N3CCOCC3)nc2Cl)CC1` [compound 92] it is more than 100 nM. As for `CC[C@H]1CN(c2nc(N)c(C(=O)NC3CCC(O)CC3)nc2Cl)CCN1C1CCN(C(=O)c2ccc(Cl)nc2N)CC1` (stereo partly drawn) [compound 93], the figure is more than 100 nM; as for `CC[C@H]1CN(c2nc(N)c(C(=O)NCCO)nc2Cl)CCN1C1CCN(Cc2cc3ccccc3nc2Cl)CC1` [compound 94], more than 100 nM; as for `CC[C@H]1CN(c2nc(N)c(C(=O)NC(=N)N3CCCC3)nc2Cl)CCN1C1CCN(C(=O)c2ccc(Cl)nc2N)CC1` [compound 95], more than 100 nM.

In turn, `CC[C@H]1CN(c2nc(N)c(C(N)=O)nc2Cl)CCN1C1CCN(C(=O)c2cc(F)c(N)nc2Cl)CC1` [compound 96] gave an IC50 of more than 100 nM. The figure for `CC[C@H]1CN(c2nc(N)c(C(=O)NCCO)nc2Cl)CCN1C1CCN(Cc2ccc(NC3CC3)nc2Cl)CC1` [compound 97] is more than 100 nM; for `CC[C@H]1CN(c2nc(N)c(C(=O)NCCCN(C)C)nc2Cl)CCN1C1CCN(C(=O)c2ccc(Cl)nc2N)CC1` [compound 98] it is more than 100 nM. As for `CC[C@H]1CN(c2ncc(C(=O)O)nc2Cl)CCN1C1CCN(C(=O)c2ccc(Cl)nc2N)CC1` [compound 99], the figure is more than 100 nM.

Compound `CC[C@H]1CN(c2nc(N)c(C(=O)Nc3cc(O)[nH]n3)nc2Cl)CCN1C1CCN(C(=O)c2ccc(Cl)nc2N)CC1` [compound 100] showed an IC50 of more than 100 nM. As for `CC[C@H]1CN(c2nc(N)c(C(=O)NC(=N)n3cccn3)nc2Cl)CCN1C1CCN(C(=O)c2ccc(Cl)nc2N)CC1` [compound 101], the figure is more than 100 nM; as for `CC[C@H]1CN(c2nc(N)c(C(=O)NN)nc2Cl)CCN1C1CCN(C(=O)c2c(C)noc2C)CC1` [compound 102], more than 100 nM; as for `CC[C@H]1CN(c2nc(N)c(C(=O)NCCO)nc2Cl)CCN1C1CCN(C(=O)c2ccc(C)nc2O)CC1` [compound 103], more than 100 nM. As for `CC[C@H]1CN(c2nc(N)c(C(=O)NCCO)nc2Cl)CCN1C1CCN(Cc2ccc3nccn3c2)CC1` [compound 104], the figure is more than 100 nM; as for `CC[C@H]1CN(c2nc(NCC3CC3)c(C(=O)OC)nc2Cl)CCN1C1CCN(C(=O)c2ccc(Cl)nc2N)CC1` [compound 105], more than 100 nM. The figure for `CC[C@H]1CN(c2nc(N)c(C(=O)NCCO)nc2Cl)CCN1C1CCN(C(=O)c2ccc(C(N)=O)nc2N)CC1` [compound 106] is more than 100 nM; for `CC[C@H]1CN(c2nc(N)c(C(N)=O)nc2Cl)CCN1C1CCN(C(=O)c2ccc(-n3cncn3)nc2)CC1` [compound 107] it is more than 100 nM; for `CC[C@H]1CN(c2nc(N)c(C(=O)NC)nc2Cl)CCN1C1CCN(Cc2cc(Cl)nc(Cl)c2)CC1` [compound 108] it is more than 100 nM.

In turn, `CC[C@H]1CN(c2nc(N)c(C(=O)O)nc2Cl)CCN1C1CCN(C(=O)c2ccc(Cl)nc2N)CC1` [compound 109] returned an IC50 of more than 100 nM.

`CC[C@H]1CN(c2nc(N)c(C(=O)NC)nc2Cl)CCN1C1CCN(C(=O)c2ccnc(Cl)c2)CC1` [compound 110] returned a half-maximal inhibitory concentration (IC50) of more than 100 nM.

Turning to `CC[C@H]1CN(c2nc(N)c(C(=O)NN)nc2Cl)CCN1C1CCN(S(=O)(=O)c2c(C)noc2C)CC1` [compound 111], the half-inhibitory concentration (IC50) is more than 100 nM. The figure for `CC[C@H]1CN(c2nc(N)c(C(=O)NC)nc2Cl)CCN1C1CCN(C(=O)c2cnc(C)cn2)CC1` [compound 112] is more than 100 nM; for `CC[C@H]1CN(c2nc(N)c(C(N)=O)nc2Cl)CCN1C1CCN(CC2COc3ccccc3O2)CC1` (stereo partly drawn) [compound 113] it is more than 100 nM; for `CC[C@H]1CN(c2nc(N)c(C(N)=O)nc2Cl)CCN1C1CCN(C(=O)c2ccc(Cl)n3ccnc23)CC1` [compound 114] it is more than 100 nM. The figure for `CC[C@H]1CN(c2nc(N)c(C(N)=O)nc2Cl)CCN1C1CCN(C(=O)c2ncc(C)nc2N)CC1` [compound 115] is more than 100 nM.
